Measurements: US6797255B1, “Methods and compositions for enhancing magnetic resonance imaging” (Mallinckrodt Inc., priority 1985, dated 2004)

Key:
rabbit = test: Bile proton T1 and T2 relaxation times over 105 min after intravenous injection; type: in vivo; details: 0.03 mmol/kg i.v., one rabbit
Procedure: All experiments employing the complex dihydrogen bis(N-[N′-(2,6-dimethylphenyl)carbamoylmethyl]iminodiaceto)manganese (II) trihydrate were conducted following intravenous administration to rabbits. A 10 mM solution of the complex was used in these studies. Rabbits were anesthetized with ketamine/xylazine prior to treatment. The results given were obtained with a 10 mHz RADX proton spin analyzer.
In a third study, one rabbit received 0.03 mmol of the complex/kg and bile samples were collected at 5-20 min intervals over a 105 min time course and proton T1 and T2 relaxation times were determined. Control bile T1 relaxation time was 944 msec. within 1 min of injection, bile T1 was reduced to 60 msec. Over the 105 minute time course, bile T1 returned to a value of 91 msec, less than 10% of the preinjection control value. The preinjection bile T2 relaxation time was 16 msec.

[1] = Relaxation parameters T1 and T2 of a 10^−3M solution in a 90 MHz NMR experiment; type: physicochemical; details: 10^−3M solution
Procedure: The complex, dihydrogen bis(N-[N′-(2,6-diisopropylphenyl)carbamoylmethyl]iminodiaceto)manganese(II) hydrate, was thus isolated as the hydrated species. The solubility of the complex in water was determined to be approximately 0.1% w/v. The relaxation parameters T1 and T2 of a 10-^−3M solution of the complex in a 90 MHz NMR experiment were determined to be 0.107 sec. and 0.007 sec. respectively. The T1 and T2 values for water are 2.51 sec. and 0.150 sec., respectively.
The relaxation parameters T1 and T2 of a 10^−3M solution of the complex in a 90 MHz NMR experiment were determined to be 126 milliseconds and 1.5 milliseconds, respectively.

**Q.** Which results are given for Cc1cccc(C)c1NC(=O)CN(CC(=O)[O-])CC(=O)O.Cc1cccc(C)c1NC(=O)CN(CC(=O)[O-])CC(=O)O.O.O.O.[Mn+2] [Example 2]?
**A.** bile T1 relative to preinjection control value (rabbit; at 105 min): less than 10%; bile T2 relaxation time (rabbit; gradual increase following injection): 44 ms; bile T1 relaxation time (rabbit; over the 105 minute time course (end value)): 91 ms; bile T1 relaxation time (rabbit; within 1 min of injection): 60 ms; relaxation parameter T1 [1]: 126 milliseconds; relaxation parameter T2 [1]: 1.5 milliseconds
